Measured values taken from patent US10293004B2, “Butyrate-producing bacterium and use thereof” (KABUSHIKI KAISHA YAKULT HONSHA, priority 2014, dated 2019).

How the values were obtained:
[1] = Turbidity (OD660) after anaerobic culture of bacterial strains in PYGA, PYSA or PYXA medium
Description: (§1) A frozen stock solution of each bacterial strain (a 10% (w/v) skim milk-2% sodium glutamate solution in which bacterial cells were suspended) (cell count: 2.0 to 5.5×10^10 cells/mL) was thawed, and the solution was inoculated at 1% to 4 mL of a PY liquid medium supplemented with 33 mM sodium acetate and 0.5 (w/v) % glucose (PYGA medium), followed by anaerobic culture at 37° C. for 24 hours. After the culture, the culture solution was inoculated at 1% to a fresh PYGA medium, followed by anaerobic culture at 37° C. for 24 hours. After the culture, the turbidity (OD660) of the culture solution was measured. Then, the culture solution was inoculated at 1% to a PY medium containing 0.5 (w/v) % L-sorbose or D-xylitol and 33 mM sodium acetate (the medium containing L-sorbose: PYSA, and the medium containing D-xylitol: PYXA), followed by anaerobic culture at 37° C. for 24 hours. Then, the turbidity (OD660) was measured.

[2] = Production of butyrate by each bacterial strain from L-sorbose and D-xylitol (ion-exclusion HPLC); conditions: 24 hours, minus PYA blank
Description: as §1
After the completion of the culture, the organic acid concentration in the culture solution was quantified by ion-exclusion HPLC. In this operation, a culture solution in a PY medium supplemented with sodium acetate but without L-sorbose or D-xylitol (PYA medium) was used as a blank.
(HPLC Analysis Conditions) • Eluent: 15 mM perchloric acid-7% acetonitrile • pH adjuster: 15 mM perchloric acid-60 mM • tris(hydroxymethyl)aminomethane-7% acetonitrile • Separation column: Organic acid analysis column RSpak KC- • 811×2 (manufactured by Showa Denko K.K.) • Column temperature: 42° C. • Injected sample volume: 10 μL • Flow rate: 1.0 mL/min • Analysis time: 35 min • Detector: Waters 432 electric conductivity detector • Cell temperature: 45° C.
The amount of butyrate produced was calculated according to (Expression 1). Amount of butyrate produced=(Amount of butyrate produced by culture for 24 hours in a PYSA or PYXA medium)−(Amount of butyrate produced by culture for 24 hours in a PYA medium) (Expression 1)

[3] = Amount of butyrate produced by culture in PYA medium supplemented with acetate and lactate; conditions: PYA medium (33 mM sodium acetate) with 40 mM sodium lactate, 37° C. 24 hours, minus PYA without lactate
Description: Each bacterial solution cultured in a PYGA liquid medium under the same conditions as those described in the preceding paragraph 1) was inoculated at 1% to a PYA medium containing 33 mM sodium acetate and further supplemented with 40 mM sodium lactate, followed by anaerobic culture at 37° C. for 24 hours. After the completion of the culture, the organic acid concentration in the culture solution was analyzed by ion-exclusion HPLC. The analysis conditions were the same as those described in the preceding paragraph 1). The amount of butyrate produced was calculated according to (Expression 2). Amount of butyrate produced=(Amount of butyrate produced by culture for 24 hours in a PYA medium supplemented with 40 mM sodium lactate)−(Amount of butyrate produced by culture for 24 hours in a PYA medium without 40 mM sodium lactate) (Expression 2)

[4] = Biochemical properties: enzymatic activity (API-ZYM, Rapid ID32A API, API KENKI 20A); design: key: +: positive reaction; −: negative reaction; +^w: weak reaction
From the text: (§2) Commercially available API-ZYM, Rapid ID32A API, and API KENKI 20A (SYSMEX bioMerieux Co., Ltd.) were used in the testing of biochemical properties of various bacterial strains. The testing method followed the product manuals.

[5] = Biochemical properties: saccharide fermentability (API-ZYM, Rapid ID32A API, API KENKI 20A); design: key: +: positive reaction; −: negative reaction; +^w: weak reaction
From the text: as §2

[6] = Evaluation of ability to produce butyrate from indigestible saccharides (Example 3)
From the text: Galactooligosaccharide (GOS), maltitol, D-mannitol, lactitol, isomalt, isomaltulose, L-sorbose and D-sorbitol were used as indigestible saccharides. These indigestible saccharides used, except for GOS, were reagent grade. GOS used was commercially available Oligomate 55N (Yakult Pharmaceutical Industry Co., Ltd.) from which monosaccharide and lactose fractions (fractions digestible and absorbable by the upper gastrointestinal tract) had been removed using an activated carbon column. Specifically, a saccharide solution diluted with purified water was added to a column packed with activated carbon (manufactured by Wako Pure Chemical Industries, Ltd.) swollen in purified water, and the column was washed with a 2% ethanol solution, followed by the elution of an indigestible fraction with a 50% ethanol solution. The eluate was dried under reduced pressure, and the obtained GOS saccharide solution was used.
A. hadrus YIT 10092^T (DSM 3119^T), which is a type strain of A. hadrus (a typical human intestinal butyrate-producing bacterium), and two isolates were used.
Each of these bacterial strains was anaerobically cultured at 37° C. for 24 hours in a PYA medium containing 33 mM sodium acetate supplemented with 0.5% D-glucose (PYGA medium). The culture solution was inoculated at 1% to a PYA medium containing 0.5 (w/v) % of each indigestible saccharide (test medium), followed by anaerobic culture at 37° C. for 24 hours. After the completion of the culture, the organic acid concentration in the culture solution was analyzed by ion-exclusion HPLC. The analysis conditions were the same as those described above in Example 2. After the quantification of the organic acid concentration, the amount of butyrate produced from each indigestible saccharide and the ratio of butyrate to total short-chain fatty acids were calculated according to the following expressions. (Amount of butyrate produced)=(Amount of butyrate in the test medium after culture)−(Amount of butyrate in a PYA medium without each indigestible saccharide after culture) (Ratio of butyrate)=(Amount of butyrate in the test medium after culture)/((Amount of acetate+Amount of propionate+Amount of butyrate) in the test medium after culture)×100 (Expression 3)

- Acid phosphatase [4]: +
- Alkaline phosphatase [4]: +
- Esterase (C4) [4]: −
- Naphthol-AS-B1-phosphohydrolase [4]: +
- α-Glucosidase [4]: −
- β-Galactosidase [4]: +
- β-Galactosidase-6-phosphate [4]: −
Substance: A. hadrus (Eubacterium hadrum) YIT 12354 (NITE BP-01831)
- Turbidity (OD660) ([1]; after anaerobic culture at 37° C. for 24 hours in PYGA liquid medium): 2.76
- Turbidity (OD660) ([1]; anaerobic culture at 37° C. for 24 hours of 1% inoculum in PYSA (L-sorbose)): 2.26
- Turbidity (OD660) ([1]; anaerobic culture at 37° C. for 24 hours of 1% inoculum in PYXA (D-xylitol)): 1.09
- Amount of butyrate produced ([2]; D-Xylitol 0.5 (w/v) %, PYXA medium): 31.0 mmol/L
- Amount of butyrate produced ([2]; L-Sorbose 0.5 (w/v) %, PYSA medium): 14.8 mmol/L
- Amount of butyrate produced [3]: 16.5 mmol/L
- Aesculin [5]: −
- D-Cellobiose [5]: −
- D-Mannitol [5]: +
- D-Raffinose [5]: +^w
- D-Xylose [5]: +
- Glycerol [5]: −
- L-Arabinose [5]: +
- L-Rhamnose [5]: −
- L-Sorbitol [5]: +
- Mallose [5]: +^w
- Salicin [5]: −
- ability to utilize indigestible saccharides ([6]; PYA medium with 0.5 (w/v) % of each indigestible saccharide, versus type strain, FIGS. 3 and 4): more than the type strain YIT 10092^T
- Amount of butyrate produced ([6]; from indigestible saccharides, versus type strain, FIG. 3): larger
- ratio of butyrate to total short-chain fatty acids ([6]; versus type strain YIT 10092^T, FIG. 4): higher than that of the type strain YIT 10092^T
